Experimental data taken from the NIST ThermoML archive (doi:10.1021/je2007549).

Test: xn = mol fraction of the nth substance listed
Settings: 101 kPa, Liquid; for electrical conductivity: Direct current cell with electrodes; for viscosity: Falling or rolling sphere viscometry; for mass density: Vibrating tube method

CCCC[P+](CCCC)(CCCC)CCCN.C[C@H](N)C(=O)[O-] [(3-aminopropyl)tributylphosphonium L-alaninate] + O
Settings | electrical conductivity [S/m] | mass density [kg/m3] | viscosity [mPa·s]
298.15 K, x2 = 0 | 0.0141 | 986.75 | 804.88
298.15 K, x2 = 0.25 | 0.0244 | 988.47 | 597.85
298.15 K, x2 = 0.5 | 0.0337 | 991.4 | 429.73
298.15 K, x2 = 0.75 | 0.0647 | 999.98 | 208.66
303.15 K, x2 = 0 | 0.0209 | 983.72 | 561.4
303.15 K, x2 = 0.25 | 0.032 | 985.39 | 417.93
303.15 K, x2 = 0.5 | 0.0439 | 988.27 | 304.2
303.15 K, x2 = 0.75 | 0.0859 | 996.76 | 150.37
313.15 K, x2 = 0 | 0.032 | 977.65 | 291.07
313.15 K, x2 = 0.25 | 0.0487 | 979.18 | 222.26
313.15 K, x2 = 0.5 | 0.0703 | 982.01 | 163.31
313.15 K, x2 = 0.75 | 0.134 | 990.22 | 83.45
323.15 K, x2 = 0 | 0.0464 | 971.62 | 164.61
323.15 K, x2 = 0.25 | 0.0727 | 973.04 | 127.07
323.15 K, x2 = 0.5 | 0.105 | 975.81 | 95.01
323.15 K, x2 = 0.75 | 0.195 | 983.57 | 50.38
333.15 K, x2 = 0 | 0.0649 | 965.71 | 106.7
333.15 K, x2 = 0.25 | 0.101 | 966.97 | 78.92
333.15 K, x2 = 0.5 | 0.147 | 969.57 | 59.3
333.15 K, x2 = 0.75 | 0.265 | 976.99 | 32.59
343.15 K, x2 = 0 | 0.0884 | 959.97 | 65.96
343.15 K, x2 = 0.25 | 0.142 | 960.89 | 53.07
343.15 K, x2 = 0.5 | 0.193 | 963.3 | 39.29
343.15 K, x2 = 0.75 | 0.334 | 970.15 | 22.27

CC(C)C[C@H](N)C(=O)[O-].CCCC[P+](CCCC)(CCCC)CCCN [(3-aminopropyl)tributylphosphonium L-leucinate] + O
Settings | electrical conductivity [S/m] | mass density [kg/m3] | viscosity [mPa·s]
298.15 K, x2 = 0 | 0.008 | 971.86 | 1227.9
298.15 K, x2 = 0.25 | 0.0114 | 973.97 | 920.24
298.15 K, x2 = 0.5 | 0.0173 | 978.04 | 599.52
298.15 K, x2 = 0.75 | 0.0395 | 987.11 | 244.81
303.15 K, x2 = 0 | 0.0108 | 968.8 | 855.26
303.15 K, x2 = 0.25 | 0.0154 | 970.91 | 629.98
303.15 K, x2 = 0.5 | 0.0232 | 974.9 | 407.91
303.15 K, x2 = 0.75 | 0.0515 | 983.89 | 174.05
313.15 K, x2 = 0 | 0.0185 | 962.68 | 417.9
313.15 K, x2 = 0.25 | 0.0254 | 964.75 | 308.75
313.15 K, x2 = 0.5 | 0.0362 | 968.61 | 209.07
313.15 K, x2 = 0.75 | 0.0795 | 977.44 | 94.21
323.15 K, x2 = 0 | 0.0291 | 956.54 | 224.29
323.15 K, x2 = 0.25 | 0.0379 | 958.56 | 169.8
323.15 K, x2 = 0.5 | 0.0515 | 962.52 | 116.62
323.15 K, x2 = 0.75 | 0.116 | 970.88 | 55.71
333.15 K, x2 = 0 | 0.0414 | 950.54 | 130.46
333.15 K, x2 = 0.25 | 0.0542 | 952.54 | 101.73
333.15 K, x2 = 0.5 | 0.0735 | 956.26 | 72.42
333.15 K, x2 = 0.75 | 0.161 | 964.27 | 35.35
343.15 K, x2 = 0 | 0.0605 | 944.58 | 81.01
343.15 K, x2 = 0.25 | 0.0761 | 946.54 | 65.08
343.15 K, x2 = 0.5 | 0.104 | 949.99 | 47.47
343.15 K, x2 = 0.75 | 0.214 | 957.61 | 23.97
